These results are taken from patent US11649227B2, “Allosteric chromenone inhibitors of phosphoinositide 3-kinase (PI3K) for the treatment of disease” (Petra Pharma Corporation, priority 2020, dated 2023).

pIC50: −log10 of the molar value.

The pIC50 is the IC50 on a negative log10 scale, so that one unit is a factor of ten. A low value points to a large IC50.

Chain of human full length PIK3CA Wild-type (p110α/p85α complex) (P42336 whole entry): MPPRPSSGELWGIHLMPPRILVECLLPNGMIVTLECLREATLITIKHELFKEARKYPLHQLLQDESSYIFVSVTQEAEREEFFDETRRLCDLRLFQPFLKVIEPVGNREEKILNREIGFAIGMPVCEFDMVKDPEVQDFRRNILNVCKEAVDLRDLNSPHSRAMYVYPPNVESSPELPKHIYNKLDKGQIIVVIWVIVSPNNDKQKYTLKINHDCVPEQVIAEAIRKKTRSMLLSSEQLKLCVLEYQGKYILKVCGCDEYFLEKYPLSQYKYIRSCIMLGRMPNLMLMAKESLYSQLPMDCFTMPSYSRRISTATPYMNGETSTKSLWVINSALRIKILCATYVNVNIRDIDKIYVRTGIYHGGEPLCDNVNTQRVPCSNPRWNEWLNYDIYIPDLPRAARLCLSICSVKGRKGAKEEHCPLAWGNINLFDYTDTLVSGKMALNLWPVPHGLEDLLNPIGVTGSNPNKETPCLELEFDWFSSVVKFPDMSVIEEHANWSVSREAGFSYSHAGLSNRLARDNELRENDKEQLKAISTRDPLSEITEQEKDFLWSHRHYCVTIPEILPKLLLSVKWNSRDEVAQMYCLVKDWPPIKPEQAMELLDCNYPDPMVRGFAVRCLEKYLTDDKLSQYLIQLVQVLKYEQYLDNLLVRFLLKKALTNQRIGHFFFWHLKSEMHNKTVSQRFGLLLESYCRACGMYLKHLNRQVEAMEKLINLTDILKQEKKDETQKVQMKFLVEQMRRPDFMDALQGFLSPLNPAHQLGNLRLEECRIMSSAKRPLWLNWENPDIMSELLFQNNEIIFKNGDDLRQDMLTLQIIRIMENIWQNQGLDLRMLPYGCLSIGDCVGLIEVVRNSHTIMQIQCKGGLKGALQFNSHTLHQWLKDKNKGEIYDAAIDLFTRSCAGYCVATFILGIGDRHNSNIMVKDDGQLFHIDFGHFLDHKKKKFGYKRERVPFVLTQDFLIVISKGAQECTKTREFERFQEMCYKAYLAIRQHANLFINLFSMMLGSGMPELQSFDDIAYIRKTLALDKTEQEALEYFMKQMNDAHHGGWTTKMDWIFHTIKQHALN
Chain of human full length PIK3CA Wild-type (p110α/p85α complex) (P27986 whole entry partner): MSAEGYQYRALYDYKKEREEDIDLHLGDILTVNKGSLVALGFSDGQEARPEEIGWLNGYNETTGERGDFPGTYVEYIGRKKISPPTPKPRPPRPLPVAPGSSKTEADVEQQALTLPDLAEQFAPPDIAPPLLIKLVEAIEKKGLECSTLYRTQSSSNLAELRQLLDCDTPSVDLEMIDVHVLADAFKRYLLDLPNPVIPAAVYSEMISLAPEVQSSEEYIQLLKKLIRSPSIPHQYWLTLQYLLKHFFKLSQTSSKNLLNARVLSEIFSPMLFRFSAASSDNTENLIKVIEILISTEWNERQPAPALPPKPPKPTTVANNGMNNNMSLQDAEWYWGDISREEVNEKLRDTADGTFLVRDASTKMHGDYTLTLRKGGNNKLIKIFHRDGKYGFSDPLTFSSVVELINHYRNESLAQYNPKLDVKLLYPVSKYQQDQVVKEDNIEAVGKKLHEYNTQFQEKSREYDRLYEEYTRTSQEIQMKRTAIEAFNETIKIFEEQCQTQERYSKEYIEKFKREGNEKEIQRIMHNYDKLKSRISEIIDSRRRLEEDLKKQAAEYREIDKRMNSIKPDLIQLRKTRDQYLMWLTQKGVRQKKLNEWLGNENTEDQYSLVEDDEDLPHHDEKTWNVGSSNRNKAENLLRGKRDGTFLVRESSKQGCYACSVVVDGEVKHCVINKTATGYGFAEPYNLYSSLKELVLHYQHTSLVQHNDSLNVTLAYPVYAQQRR
Chain of human full length PIK3CA H1047R mutant (p110α/p85α complex) (P42336 whole entry H1047R): as the sequence (P42336 whole entry) above, with H1047R counted along it
Chain of human full length PIK3CA H1047R mutant (p110α/p85α complex) (P27986 whole entry partner): as the sequence (P27986 whole entry partner) above

The target of one assay is human full length PIK3CA Wild-type (p110α/p85α complex) (Homo sapiens (Human), UniProt P42336). The assay is described as follows: PI3K-Alpha kinase (PIK3CA) activity, wild-type, Transcreener ADP2 FI assay. Particulars: PI3K-α (PIK3CA) wild-type, biochemical. The method, then:
(§1) PI3K-Alpha kinase (PIK3CA) activity, wild-type and H1047R mutant and determining IC50 values for inhibitors
(§2) Recombinant, catalytically active human full length PIK3KA Wild-type and H1047R mutant were purchased as 1:1 complex of N-terminal 6×his tagged p110<(catalytic) and untagged p85<(regulatory subunit) from EMD Millipore Sigma (cat. no. 14-602M and 14-792M, respectively). The enzyme stocks were diluted to 5× stocks in buffer (20 mM HEPES pH 7.4, 100 mM NaCl, 0.5 mM EGTA, 0.01% triton-x-100) just before use. PIP2diC8 (Avanti Polar Lipids Inc., cat. no. 850185) or phosphoinositol-4,5-bisphosphate with phosphoserine (PIP2:PS) membrane (Thermo Fisher Scientific, cat. no. PV5100) was used as lipid substrates. PIP2diC8 lyophilized powder and PIP2:PS (1:19) membrane stock (1 mM in PIP2) were separately dissolved in milliQ water to a concentration of 250 uM and stored in −20° C. 10 mM stocks of compounds were serially diluted (3×) in neat DMSO and stored in a dessicator at room temperature. 5× compound stocks in 25% DMSO were prepared fresh from neat DMSO stocks. Wild-type (WT) and H1047R mutant protein, along with buffer components (except ATP), were incubated with or without compound at 27° C. for 1h. After incubation, the reaction was initiated by the addition of 5 uL of 125 uM ATP. A typical assay mixture (25 uL) comprised 40 mM HEPES buffer, pH 7.4, 25 mM MgCl2, 0.01% v/v triton-X-100, 5% v/v DMSO, 20 mM NaCl, 1-5 nM wt or H1047R, 25 uM ATP, and 50 uM PTP2diC8 or PTP2 in membrane. The reaction was allowed to proceed until about […] (2.5 uM ADP) after which time, 10 uL of reaction mixture was quenched with 25 uL of transcreener reagent (Transcreener ADP2 FI assay kit, BellBrook labs, Cat. No. 3013). The contents were incubated at rt for 1h and fluorescence was measured using a plate reader (Paradigm, Molecular Devices). The same assay was also run at pH 6.0 or 6.4 using MOPS buffer (Fisher BioReagents, CAS 1132-61-2). A calibration curve was generated under identical buffer conditions with varying ADP amounts. Using that, the observed fluorescence was converted to uM ADP. A plot between [ADP] and log[I] yielded the dose-response curves that enabled the calculation of IC50s.
`CCc1c(N2CCC(C)(C)CC2)oc2c(C(C)Nc3ccccc3C(=O)O)cc(C)cc2c1=O` (stereo not shown) [Example 55, 2-[1-[2-(4,4-dimethyl-1-piperidyl)-3-ethyl-6-methyl-4-oxo-chromen-8-yl]ethylamino]benzoic acid]: the pIC50 is 5.30 to 6.00.
Molecule `Cc1cc(C(C)Nc2ccccc2C(=O)O)c2oc(N3CCCC(C)(C)C3)cc(=O)c2c1` (stereo not shown) [Example 65, 2-[1-[2-(3,3-Dimethyl-1-piperidyl)-6-methyl-4-oxo-chromen-8-yl]ethylamino]benzoic acid] gave a pIC50 of 5.00 to 5.30.
Regarding `Cc1cc(C(C)Nc2ccccc2C(=O)O)c2oc(N3CC4(CCCCC4)C3)cc(=O)c2c1` (stereo not shown) [Example 88, 2-[1-[2-(2-Azaspiro[3.5]nonan-2-yl)-6-methyl-4-oxo-chromen-8-yl]ethylamino]benzoic acid], the pIC50 is 5.00 to 5.30.
`Cc1cc(C(C)Nc2ccccc2C(=O)O)c2oc(N3Cc4ccc(F)cc4C3)cc(=O)c2c1` (stereo not shown) [Example 105, 2-[1-[2-(5-Fluoroisoindolin-2-yl)-6-methyl-4-oxo-chromen-8-yl]ethylamino]benzoic acid] showed a pIC50 of 5.00 to 5.30.
The same measure, in the same setting: for `Cc1cc(C(C)Nc2ccccc2C(=O)O)c2oc(N3CCn4cccc4C3)cc(=O)c2c1` (stereo not shown) [Example 171, 2-[1-[2-(3,4-Dihydro-1H-pyrrolo[1,2-a]pyrazin-2-yl)-6-methyl-4-oxo-chromen-8-yl]ethylamino]benzoic acid] the value was 6.00 to 6.30; for `Cc1cc(C(C)Nc2ccccc2C(=O)O)c2oc(N3CC4CC(C4)C3)cc(=O)c2c1` (stereo not shown) [Example 177, 2-[1-[2-(3-Azabicyclo[3.1.1]heptan-3-yl)-6-methyl-4-oxo-chromen-8-yl]ethylamino]benzoic acid 2,2,2-trifluoroacetic acid], 5.30 to 6.00; for `Cc1cc(C(C)Nc2ccccc2C(=O)O)c2oc(N3CC(C(C)(F)F)C3)cc(=O)c2c1` (stereo not drawn) [Example 189, 2-[1-[2-[3-(1,1-Difluoroethyl)azetidin-l-yl]-6-methyl-4-oxo-chromen-8-yl]ethylamino]benzoic acid 2,2,2-trifluoroacetic acid], 5.30 to 6.00.
On the same count and under the same terms, for `Cc1cc(C(C)Nc2ccccc2C(=O)O)c2oc(N3CCc4ccccc4C3)cc(=O)c2c1` (stereo not shown) [Example 233, 2-[1-[2-(3,4-Dihydro-1H-isoquinolin-2-yl)-6-methyl-4-oxo-chromen-8-yl]ethylamino]benzoic acid] the value was 5.30 to 6.00.
For the molecule `Cc1cc(C(C)Nc2sc(Cl)nc2C(=O)O)c2oc(N3Cc4ccccc4C3)cc(=O)c2c1` (stereo not shown) [Example 245, 2-Chloro-5-[1-(2-isoindolin-2-yl-6-methyl-4-oxo-chromen-8-yl)ethylamino]thiazole-4-carboxylic acid 2,2,2-trifluoroacetic acid], the pIC50 was 6.00 to 6.30.
The same measure, in the same setting: for `Cc1cc([C@@H](C)Nc2ccccc2C(=O)O)c2oc(N3CCC(C#N)(c4ccccc4)CC3)c(C)c(=O)c2c1` [Example 288, 2-[[(1R)-1-[2-(4-Cyano-4-phenyl-1-piperidyl)-3,6-dimethyl-4-oxo-chromen-8-yl]ethyl]amino]benzoic acid] the value was 6.00 to 6.30.
The same measure, in the same setting: for `Cc1cc([C@@H](C)Nc2ccccc2C(=O)O)c2oc(N3CC4(CCC4(F)F)C3)c(C)c(=O)c2c1` [Example 289, 2-[[(1R)-1-[2-(7,7-Difluoro-2-azaspiro[3.3]heptan-2-yl)-3,6-dimethyl-4-oxo-chromen-8-yl]ethyl]amino]benzoic acid] the value was 6.00 to 6.30; for `Cc1cc(C(C)Nc2ccc(Cl)nc2C(=O)O)c2oc(N3Cc4ccc(F)cc4C3)cc(=O)c2c1` (stereo not shown) [Example 297, 6-Chloro-3-[1-[2-(5-fluoroisoindolin-2-yl)-6-methyl-4-oxo-chromen-8-yl]ethylamino]pyridine-2-carboxylic acid], 5.30 to 6.00; for `Cc1cc(C(C)Nc2ccc(Cl)nc2C(=O)O)c2oc(N3Cc4ccc5c(c4C3)OCO5)cc(=O)c2c1` (stereo not shown) [Example 299, 6-Chloro-3-[1-[2-(6,8-dihydro-[1,3]dioxolo[4,5-e]isoindol-7-yl)-6-methyl-4-oxo-chromen-8-yl]ethylamino]pyridine-2-carboxylic acid], 6.00 to 6.30.
On the same count and under the same terms, with `Cc1cc(C(C)Nc2ccc(Cl)nc2C(=O)O)c2oc(N3CCC4(CC3)CC4)c(C)c(=O)c2c1` (stereo not shown) [Example 302, 3-[1-[2-(6-Azaspiro[2.5]octan-6-yl)-3,6-dimethyl-4-oxo-chromen-8-yl]ethylamino]-6-chloro-pyridine-2-carboxylic acid] the figure was 6.00 to 6.30.
For the molecule `CC(Nc1ccccc1C(=O)O)c1cc(C(F)(F)F)cc2c(=O)cc(N3CCC(F)(F)CC3)oc12` (stereo not shown) [Example 396, 2-[1-[2-(4,4-Difluoro-1-piperidyl)-4-oxo-6-(trifluoromethyl)chromen-8-yl]ethylamino]benzoic acid 2,2,2-trifluoroacetic acid], the pIC50 is 5.30 to 6.00.
Same read-out and setting: with `CC(Nc1ccccc1C(=O)O)c1cc(F)cc2c(=O)cc(N3CCC4(CC3)CC4)oc12` (stereo not shown) [Example 398, 2-[1-[2-(6-Azaspiro[2.5]octan-6-yl)-6-fluoro-4-oxo-chromen-8-yl]ethylamino]benzoic acid 2,2,2-trifluoroacetic acid] the figure was 5.30 to 6.00.
The molecule `CC(Nc1ccccc1C(=O)O)c1cc(F)cc2c(=O)cc(N3CCC(F)(F)CC3)oc12` (stereo not shown) [Example 399] gave a pIC50 of 5.30 to 6.00.

The next assay addresses human full length PIK3CA H1047R mutant (p110α/p85α complex) (Homo sapiens (Human), UniProt P42336, H1047R). The assay is described as follows: PI3K-Alpha kinase (PIK3CA) activity, H1047R mutant, Transcreener ADP2 FI assay. Particulars: PI3K-α (PIK3CA) H1047R mutant, biochemical. The method, then: as §1, §2
`Cc1cc(C(C)Nc2ccsc2C(=O)O)c2oc(N3CCC(C)(C)CC3)cc(=O)c2c1` (stereo not shown) [Example 39, 3-[1-[2-(4,4-Dimethyl-1-piperidyl)-6-methyl-4-oxo-chromen-8-yl]ethylamino]thiophene-2-carboxylic acid] gave a pIC50 of 5.30 to 6.00.
The molecule `Cc1cc(C(C)Nc2ccccc2C(=O)O)c2oc(N3CCCC4(CNC(=O)C4)C3)cc(=O)c2c1` (stereo not shown) [Example 61, 2-[1-[6-Methyl-4-oxo-2-(3-oxo-2,7-diazaspiro[4.5]decan-7-yl)chromen-8-yl]ethylamino]benzoic acid] had a pIC50 of 5.30 to 6.00.
`Cc1cc(C(C)Nc2ccccc2C(=O)O)c2oc(N3CC(N(C)C)C3)cc(=O)c2c1` (stereo not shown) [Example 68, 2-[1-[2-[3-(Dimethylamino)azetidin-1-yl]-6-methyl-4-oxo-chromen-8-yl]ethylamino]benzoic acid] gave a pIC50 of 5.30 to 6.00.
The same measure, in the same setting: with `Cc1cc(C(C)Nc2ccccc2C(=O)O)c2oc(N3CC4CCC(C3)O4)cc(=O)c2c1` (stereo not shown) [Example 82, 2-[1-[6-Methyl-2-(8-oxa-3-azabicyclo[3.2.1]octan-3-yl)-4-oxo-chromen-8-yl]ethylamino]benzoic acid] the figure was 5.30 to 6.00.
Still for that read-out and setting: for `Cc1cc(C(C)Nc2ccccc2C(=O)O)c2oc(N3CCS(=O)(=O)CC3)cc(=O)c2c1` (stereo not shown) [Example 117, 2-[1-[2-(1,1-Dioxo-1,4-thiazinan-4-yl)-6-methyl-4-oxo-chromen-8-yl]ethylamino]benzoic acid] the value was 5.30 to 6.00; for `Cc1cc(C(C)Nc2ccccc2C(=O)O)c2oc(N3CCn4cnnc4C3)cc(=O)c2c1` (stereo not shown) [Example 163, 2-[1-[2-(6,8-Dihydro-5H-[1,2,4]triazolo[4,3-a]pyrazin-7-yl)-6-methyl-4-oxo-chromen-8-yl]ethylamino]benzoic acid], 5.30 to 6.00; for `Cc1cc(C(C)Nc2ccccc2C(=O)O)c2oc(NC34CC5CC(CC(CO)(C5)C3)C4)cc(=O)c2c1` (stereo not shown) [Example 169], 5.30 to 6.00.
As for `COc1ccc(NC(C)c2cc(C)cc3c(=O)cc(N4Cc5ccccc5C4)oc23)c(C(=O)O)n1` (stereo not shown) [Example 237, 3-[1-(2-Isoindolin-2-yl-6-methyl-4-oxo-chromen-8-yl)ethylamino]-6-methoxy-pyridine-2-carboxylic acid], the pIC50 was 5.00 to 5.30.
Same read-out and setting: with `Cc1cc(C(C)Nc2cccc(F)c2C(=O)O)c2oc(N3Cc4ccc(F)cc4C3)cc(=O)c2c1` (stereo not shown) [Example 238, 2-Fluoro-6-[1-[2-(5-fluoroisoindolin-2-yl)-6-methyl-4-oxo-chromen-8-yl]ethylamino]benzoic acid] the figure was 5.30 to 6.00.
Same read-out and setting: with `CNC(=O)C1CCN(c2cc(=O)c3cc(C)cc(C(C)Nc4ccccc4C(=O)O)c3o2)CC1` (stereo not shown) [Example 371, 2-[1-[6-Methyl-2-[4-(methylcarbamoyl)-1-piperidyl]-4-oxo-chromen-8-yl]ethylamino]benzoic acid] the figure was 5.30 to 6.00.
As for `COC1CCN(c2cc(=O)c3cc(C)cc(C(C)Nc4ccccc4C(=O)O)c3o2)CC1` (stereo not shown) [Example 373, 2-[1-[2-(4-Methoxy-1-piperidyl)-6-methyl-4-oxo-chromen-8-yl]ethylamino]benzoic acid], the pIC50 was 6.00 to 6.30.
